# Experimental data: US20230151376A1, “ORGANELLE TRANSFORMANT SCREENING METHOD” (NATIONAL UNIVERSITY CORPORATION KOBE UNIVERSITY, priority 2020, published 2023)
# How the values were obtained:
# [1] = test system: Arabidopsis thaliana cultured cells 87T; assay: Concerted sensitivity test on herbicide and antibiotic in Arabidopsis thaliana cultured cells; assay type: cell-based; details: for inhibition of the growth rate in combination with spectinomycin: both spectinomycin and herbicide, effect not observed with individual administration of the same concentration
# Protocol: Arabidopsis thaliana cultured cells 87T were used in the experiment. Media comprising different concentrations of a group of herbicides and spectinomycin using a redifferentiation medium (Q. Yu. et al. Plant Physiol. 2017. 175(1). 186-193) as the base were added to each well of a 24-well plate. Specifically, a plate with varying concentrations of the group of herbicides of 0, 0.1, 1, 10, 50, and 100 μM in the direction of the X-axis of the plate and varying concentrations of an antibiotic spectinomycin of 0, 1, 10, and 100 μg/mL in the direction of the y-axis was prepared (FIG. 9A). Pinoxaden, tepraloxydim, tralkoxydim, cyhalofop butyl, and haloxyfop were used as the group of herbicides in each plate. 100 μL of cultured cells was added to each well and cultured under light-dark conditions in an artificial climate incubator. On days 3, 7, and 15 after culture, the growth status was checked to study the concerted sensitivity of a herbicide and antibiotic. • Results
# Oryza sativa callus = assay: Herbicide selection of Oryza sativa callus on redifferentiation selection medium after plasmid bombardment; assay type: cell-based, Oryza sativa japonica (Nipponbare); details: callus introduced with pNC (no resistance) sensitive; redifferentiated individuals counted after about 6 weeks; tested 0.1-4.0 μM
# Protocol: For the experiment, Oryza sativa japonica (Nipponbare) was used. Threshed Oryza sativa seeds were placed in a callus inducing medium, i.e., an N6D medium (Z. Shimatani et al. Nat Biol. 2017), and grown under conditions of 25° C. away from light within an artificial climate incubator to induce a primary callus. To prepare a callus plate for introducing a gene, the primary callus that had been actively growing for several weeks since induction of the callus from seeds was strained using a sterilized mesh. The refined callus was uniformly applied on filter paper placed on a callus inducing medium plate. A gene was introduced to a plate obtained by culturing the callus for 3 to 4 days within the artificial climate incubator. For selection of a transformant, a redifferentiation medium which is an MSRE medium (Z. Shimatani et al. Nat Biol. 2017) added with a suitable herbicide was used and cultured under conditions of 31.5° C. in a light-dark cycle of 12 hours within the artificial climate incubator. […]
# After introduction of a gene, the plate was subjected to expansion culture under dark conditions in the artificial climate incubator for 3 to 4 days. […] The number of individuals redifferentiated from the callus clumps was counted as the selected individual count. • <Detection of Transgenesis in a Created Individual>
SMILES,concentration at which a selection effect of the herbicide can be expected (Oryza sativa callus) [µM],inhibition of the growth rate in combination with spectinomycin [1],further results
CCCCOC(=O)[C@@H](C)Oc1ccc(Oc2ccc(C#N)cc2F)cc1 [cyhalofop butyl],–,–,"inhibition of the growth rate by herbicide alone ([1]; herbicide alone, within the range of concentrations studied (0-100 μM)): not observed"
CC(Oc1ccc(Oc2ncc(C(F)(F)F)cc2Cl)cc1)C(=O)O (centres unmarked) [haloxyfop],≥ 0.1,significant inhibition of the growth rate,–
CCc1cc(C)cc(CC)c1-c1c(OC(=O)C(C)(C)C)n2n(c1=O)CCOCC2 [pinoxaden],–,significant inhibition of the growth rate,"herbicide concentration at which inhibition of growth was observed ([1]; herbicide alone, tested 0-100 μM, growth checked on days 3, 7, 15): ≥ 10 µM"
CN[C@@H]1[C@H](O)[C@H](NC)[C@H]2O[C@@]3(O)C(=O)C[C@@H](C)O[C@H]3O[C@@H]2[C@H]1O [spectinomycin],–,–,"colour of cultured cells (chloroplast development) ([1]; 100 μg/mL spectinomycin): Change in color to yellow; inhibition of the growth rate by spectinomycin alone ([1]; only spectinomycin, concentration range studied (0-100 μg/mL)): not inhibited"
CCO/N=C(\CC)C1=C(O)CC(c2c(C)cc(C)cc2C)CC1=O (centres unmarked) [tralkoxydim],≥ 0.5,–,–
